Data published in US20240252446A1, “DERIVATIZED COLLAGEN-HYALURONIC ACID BASED IMPLANTS FOR SUSTAINED DELIVERY OF OPHTHALMIC DRUGS” (SUSTAINED DRUG DELIVERY LLC, priority 2023, published 2024).

Assay: Evaluation of active agent release in vitro from polymerized collagen-hyaluronic acid film (HPLC)
Assay type: physicochemical
Settings: from UV-polymerized (18 min, 254 nm) collagen-hyaluronic acid film, 0.01 M phosphate buffer pH 7.4, 37° C., 1 hour to 3 months
Description: Four round pieces of 35 mm diameter polymerized film were cut into 4 sections and placed in 1.5 mL vials containing 1 mL of 0.01 M phosphate buffer at a pH of 7.4. The 16 vials were placed in a controlled temperature chamber at 37° C. Five aliquots of 100 μL were removed from 2 vials each at 1 hour, 3 days, 7 days, 2 weeks, 1 month, 2 months, and 3 months. Two vials were reserved for additional time periods if release was still noted at 3 months. Four vials of buffer only were used for controls.
Active agent concentration (e.g., Latanoprost) was measured by HPLC at Millennium Research Laboratories. Detection at nanogram levels was validated using active agent (e.g., Latanoprost) standards and concentration curves.

## CC(C)OC(=O)CCC/C=C\C[C@@H]1[C@@H](CC[C@@H](O)CCc2ccccc2)[C@H](O)C[C@@H]1O [Latanoprost, 13,14-dihydro-17-phenyl-18,19,20-trinor-prostaglandin F2a-1-isopropyl ester]
  Active agent release profile: initial bolus release at 1 day followed by sustained, zero order release through 3 months
